Experimental data published in patent US6028109A, “Use of agonists of the peroxisome proliferator activated receptor alpha for treating obesity” (Glaxo Wellcome Inc., priority 1996, dated 2000).

Columns and labels:
hPPARα = target: T1, hPPARα (Homo sapiens, UniProt Q07869); test: Transient cotransfection assay, GAL4-PPARα chimera in CV-1 cells (human PPARα); type: cell-based; details: transfection assay
T1 construct: amino acids 174-475 of PPARα; expressed in transfected cells; host or cells: CV-1 cells
T1 sequence (Q07869 167-468 limits assumed): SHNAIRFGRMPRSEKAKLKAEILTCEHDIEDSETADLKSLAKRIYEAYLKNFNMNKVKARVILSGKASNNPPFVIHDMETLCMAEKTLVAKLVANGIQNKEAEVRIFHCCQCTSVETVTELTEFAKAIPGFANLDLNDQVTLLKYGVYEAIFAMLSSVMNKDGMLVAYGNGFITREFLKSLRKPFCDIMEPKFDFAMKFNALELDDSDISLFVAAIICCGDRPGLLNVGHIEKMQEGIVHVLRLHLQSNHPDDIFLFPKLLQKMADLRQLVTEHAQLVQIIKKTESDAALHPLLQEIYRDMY
Description: (§1) A transient cotransfection assay was used to screen for PPARα activator activity of compounds of formula (I).
(§2) As mammalian cell lines contain endogenous nuclear receptors that can complicate interpretation of the results, we used an established chimera system in which the ligand-binding domain of the PPAR-α was fused to the DNA binding domain of the yeast transcription factor GAL4.The GAL4-PPARα chimera was cotransfected into CV-1 cells with a reporter construct containing five copies of the GAL4 binding site upstream of the thymidine kinase promotor driving secreted placental alkaline phosphatase (SPAP) as reporter.
(§3) GAL4-PPAR chimera and UAS-tk-CAT/SPAP reporters. […]
(§4) Transfection assay; SPAP reporter. […] 16 h later the medium was exchanged to DME medium supplemented with 10% delipidated fetal calf serum and the test compound at a concentration of 10^-5 M. After incubation for an additional 24 h SPAP activity and β-galactosidase activity were measured as previously described (Pfahl et al., 1990).
(§5) Transfection assay: CAT reporter. […] After incubation for an additional 24 h, chloramphenicol acetyl transferase (CAT) activity and β-galactosidase activity were measured as previously described (Pfahl et al., 1990). […]

mPPARα = target: T2, mPPARα (Mus musculus, UniProt P23204); test: Transient cotransfection assay, GAL4-PPARα chimera in CV-1 cells (mouse PPARα); type: cell-based; details: transfection assay
T2 construct: amino acids 174-475 of PPARα; expressed in transfected cells; host or cells: CV-1 cells
T2 sequence (P23204 167-468 limits assumed): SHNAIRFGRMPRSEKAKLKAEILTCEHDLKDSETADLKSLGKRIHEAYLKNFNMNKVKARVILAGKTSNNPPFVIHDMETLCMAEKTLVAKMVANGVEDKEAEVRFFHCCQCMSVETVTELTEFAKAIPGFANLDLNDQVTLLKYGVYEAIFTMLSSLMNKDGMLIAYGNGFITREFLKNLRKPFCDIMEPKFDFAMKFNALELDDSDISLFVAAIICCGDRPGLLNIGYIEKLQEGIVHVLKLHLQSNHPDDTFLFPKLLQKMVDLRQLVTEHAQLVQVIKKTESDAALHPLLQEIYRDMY
Description: as §1, §2, §3, §4, §5

[1] = Change of body weight in hamsters on 1% cholesterol chow, 14 days oral dosing; type: in vivo, Golden Syrian hamsters; details: for change of body weight (gained): diet-only control gained 23.2 g; for change of body weight (lost): Compound B Test, diet-only control gained 13 g
Procedure: Male Golden Syrian hamsters (supplied by Charles River), weighing approximately 140-150 g at the start of the study, were subjected to the following dietary regime. On day 0, four groups of animals (n=6/group) were begun on a diet consisting of rodent chow containing 1% cholesterol. Three of the four groups on the cholesterol diet also began oral dosing with Compound A as described in Example 3 ([…]). Compound A was given as a suspension in 5% bicarbonate and 0.5% methyicellulose. The study was carried out for 14 days.
The above dietary regime was also carried out with Compound B, but the dosages of Compound B employed were 0.1, 0.5 and 1mglkg/day.
The changes of body weight observed were as follows: […]

GST-PPARα = test: Competition binding for PPARα against the radioligand of Example 2; details: 100 nM radioligand of Example 2, 1000-fold excess (100 microM) of competitor; no competitor 40,200 cpm bound
Procedure: a) Binding of the radioligand of Example 2 to PPARα The ligand binding domains of mouse and human PPARα were expressed in E. Coli as fusion proteins with glutathione-S-transferase (GST). DNA encoding the ligand binding domain of mouse and human PPARa was amplified via polymerase chain reaction and inserted in-frame into the bacterial expression vector pGEX-2T (Pharmacia). GST-mPPARα and GST-hPPARa fusion proteins were expressed in BL21(DE3)plysS cells. After a 2 hour induction with 1 mM IPTG, the cells were lysed by freeze/thaw in 1/10 volumes of a buffer containing 50 mM Tris (pH 8), 250 mM KCl, 10 mM DTT, 1 mM PMSF, and 1% Triton X-100. Lysates were clarified by centrifugation for 1 hr at 50,000 x g. 1.5 ml of a 50% glutathione-sepharose bead (Pharmacia)/phosphate buffered saline slurry was added to 10 ml of clarified lysate, the mixture incubated for 30 minutes, and the glutathione-sepharose bead-GST-PPARα complexes were then collected by centrifugation and washed twice in binding buffer containing 50 mM KCl, 10 mM Tris (pH 8), 1 mM DTT. The washed glutathione-sepharose bead-PPARα complexes were resuspended in 0.75 ml binding buffer containing 10% glycerol. […]

| EC50 (hPPARα) [nM] | EC50 (mPPARα) [nM] | cpm bound (GST-PPARα) | SMILES | change of body weight (gained) ([1]; 0.05 mg/kg/day oral) [g] | change of body weight (gained) ([1]; 0.1 mg/kg/day oral, Compound A Test) [g] | change of body weight (gained) ([1]; 0.25 mg/kg/day oral) [g] | change of body weight (gained) ([1]; 0.5 mg/kg/day oral, Compound A Test) [g] | change of body weight (lost) ([1]; 0.5 mg/kg/day oral) [g] | change of body weight (lost) ([1]; 1 mg/kg/day oral) [g] |
| --- | --- | --- | --- | --- | --- | --- | --- | --- | --- |
| 545 | 13 | 18,300 cpm | CCCCCCCN(CCc1ccc(OC(C)(C)C(=O)O)cc1)C(=O)Nc1ccc(F)cc1 [Compound A, 2-(4[2-(3-[4-fluorophenyl]-1-heptylureido)ethyl]-phenoxy)-2-methylpropionicacid] | 20 | 26.2 | 12.6 | 3.4 |  |  |
| 720 | 25 | 13,000 cpm | CCCCCCCN(CCc1ccc(OC(C)(C)C(=O)O)cc1)C(=O)Nc1ccc(F)cc1F [Compound B, 2-(4-[2-(3-[2,4-difluorophenyl]-1-heptylureido)ethyl]-phenoxy)-2-methylpropionic acid] |  |  |  |  | 12.3 | 12.4 |
